# According to ChEMBL document CHEMBL5321213, “Nicolaioidesin C: An Antiausterity Agent Shows Promising Antitumor Activity in a Pancreatic Cancer Xenograft Mouse Model” (J Nat Prod, 2023):
# Active and inactive are the calls of the source. No cut-off for these calls is given here.
# How the values were obtained:
# MIA PaCa-2 [1] = assay: Antitumor activity against human MIA PaCa-2 cells xenografted in athymic BALB/c-nu mouse assessed as fold change in valine level in tumor at 10 mg/kg/day, ip administered five times per week for 4 weeks by LC-MS analysis; type: functional
# PANC-1 [2] = assay: Inhibition of Akt/mTOR signaling pathway in human PANC-1 cells in nutrient-deprived medium assessed as reduction in AKT phosphorylation at S473 residue measured after 6 hrs by Western blot analysis; type: cell-based; conditions: dose 5-20 µM
# PANC-1 [3] = assay: Inhibition of autophagy in human PANC-1 cells in nutrient-deprived medium assessed as downregulation of LC3-II protein expression measured after 6 hrs by Western blot analysis; type: functional, cell-based; conditions: dose 5-20 µM
# MIA PaCa-2 [4] = assay: Inhibition of autophagy in human MIA PaCa-2 cells in nutrient-deprived medium assessed as downregulation of LC3-I protein expression measured after 6 hrs by Western blot analysis; type: functional, cell-based; conditions: dose 5-20 µM
# PANC-1 [5] = assay: Antimetastatic activity in human PANC-1 cells in DMEM media assessed as inhibition of colony formation at 10 uM incubated for 24 hrs followed by replacement with fresh medium and measured after 10 days by crystal violet staining-based assay relative to control; type: functional
# MIA PaCa-2 [6] = assay: Antitumor activity against human MIA PaCa-2 cells xenografted in athymic BALB/c-nu mouse assessed as tumor wet weight at 10 mg/kg/day, ip administered five times per week for 4 weeks (reference value: 368 mg); type: functional
# MIA PaCa-2 [7] = assay: Antitumor activity against human MIA PaCa-2 cells xenografted in athymic BALB/c-nu mouse assessed as reduction in p-Akt level in tumor at 2 to 10 mg/kg/day, ip administered five times per week for 4 weeks by immunohistochemistry analysis; type: functional, organism-based; conditions: dose 2-10 mg/kg/day
# MIA PaCa-2 [8] = assay: Antitumor activity against human MIA PaCa-2 cells xenografted in athymic BALB/c-nu mouse assessed as fold change in cytidine 5'-monophosphate level in tumor at 10 mg/kg/day, ip administered five times per week for 4 weeks by LC-MS analysis; type: functional
# MIA PaCa-2 [9] = assay: Antitumor activity against human MIA PaCa-2 cells xenografted in athymic BALB/c-nu mouse assessed as fold change in methionine level in tumor at 10 mg/kg/day, ip administered five times per week for 4 weeks by LC-MS analysis; type: functional
# MIA PaCa-2 [10] = assay: Antitumor activity against human MIA PaCa-2 cells xenografted in athymic BALB/c-nu mouse assessed as fold change in 5'-methylthioadenosine level in tumor at 10 mg/kg/day, ip administered five times per week for 4 weeks by LC-MS analysis; type: functional
# MIA PaCa-2 [11] = assay: Antitumor activity against human MIA PaCa-2 cells xenografted in athymic BALB/c-nu mouse assessed as fold change in asparagine level in tumor at 10 mg/kg/day, ip administered five times per week for 4 weeks by LC-MS analysis; type: functional
# MIA PaCa-2 [12] = assay: Antitumor activity against human MIA PaCa-2 cells xenografted in athymic BALB/c-nu mouse assessed as fold change in 2'-deoxycytidine level in tumor at 10 mg/kg/day, ip administered five times per week for 4 weeks by LC-MS analysis; type: functional
# MIA PaCa-2 [13] = assay: Preferential cytotoxicity against human MIA PaCa-2 cells in nutrient-deprived medium assessed as alteration in cell morphology by measuring leakage of cell components at 5 uM measured after 24 hrs by acridine orange and ethidium bromide dual fluorescent staining based imaging analysis; type: functional
# PANC-1 [14] = assay: Antimetastatic activity in human PANC-1 cells in nutrient-rich medium assessed as open wound area at 20 uM measured every 15 mins for 48 hrs by live cell imaging analysis relative to control; type: functional
# PANC-1 [15] = assay: Inhibition of Akt/mTOR signaling pathway in human PANC-1 cells in DMEM media assessed as reduction in AKT phosphorylation at S473 residue at 5 to 20 uM measured after 6 hrs by Western blot analysis; type: cell-based; conditions: dose 5-20 µM
# MIA PaCa-2 [16] = assay: Antitumor activity against human MIA PaCa-2 cells xenografted in athymic BALB/c-nu mouse assessed as fold change in cytidine diphosphate ethanolamine level in tumor at 10 mg/kg/day, ip administered five times per week for 4 weeks by LC-MS analysis; type: functional
# MIA PaCa-2 [17] = assay: Antitumor activity against human MIA PaCa-2 cells xenografted in athymic BALB/c-nu mouse assessed as fold change in desthiobiotin level in tumor at 10 mg/kg/day, ip administered five times per week for 4 weeks by LC-MS analysis; type: functional
# MIA PaCa-2 [18] = assay: Antitumor activity against human MIA PaCa-2 cells xenografted in athymic BALB/c-nu mouse assessed as fold change in glycerol-3-phosphate level in tumor at 10 mg/kg/day, ip administered five times per week for 4 weeks by LC-MS analysis; type: functional
# MIA PaCa-2 [19] = assay: Antitumor activity against human MIA PaCa-2 cells xenografted in athymic BALB/c-nu mouse assessed as fold change in Gly-Leu metabolite level in tumor at 10 mg/kg/day, ip administered five times per week for 4 weeks by LC-MS analysis; type: functional
# MIA PaCa-2 [20] = assay: Antitumor activity against human MIA PaCa-2 cells xenografted in athymic BALB/c-nu mouse assessed as fold change in 2'-deoxycytidine level in tumor at 2 mg/kg/day, ip administered five times per week for 4 weeks by LC-MS analysis; type: functional
# MIA PaCa-2 [21] = assay: Antitumor activity against human MIA PaCa-2 cells xenografted in athymic BALB/c-nu mouse assessed as fold change in 4-(methylthio)-2-oxobutyric acid level in tumor at 2 mg/kg/day, ip administered five times per week for 4 weeks by LC-MS analysis; type: functional
# MIA PaCa-2 [22] = assay: Antitumor activity against human MIA PaCa-2 cells xenografted in athymic BALB/c-nu mouse assessed as fold change in 5'-methylthioadenosine level in tumor at 2 mg/kg/day, ip administered five times per week for 4 weeks by LC-MS analysis; type: functional
# MIA PaCa-2 [23] = assay: Antitumor activity against human MIA PaCa-2 cells xenografted in athymic BALB/c-nu mouse assessed as fold change in benzoic acid level in tumor at 2 mg/kg/day, ip administered five times per week for 4 weeks by LC-MS analysis; type: functional
# MIA PaCa-2 [24] = assay: Antitumor activity against human MIA PaCa-2 cells xenografted in athymic BALB/c-nu mouse assessed as fold change in desthiobiotin level in tumor at 2 mg/kg/day, ip administered five times per week for 4 weeks by LC-MS analysis; type: functional
# MIA PaCa-2 [25] = assay: Antitumor activity against human MIA PaCa-2 cells xenografted in athymic BALB/c-nu mouse assessed as fold change in D-glucosamine 6-phosphate level in tumor at 2 mg/kg/day, ip administered five times per week for 4 weeks by LC-MS analysis; type: functional
# MIA PaCa-2 [26] = assay: Antitumor activity against human MIA PaCa-2 cells xenografted in athymic BALB/c-nu mouse assessed as fold change in asparagine level in tumor at 2 mg/kg/day, ip administered five times per week for 4 weeks by LC-MS analysis; type: functional
# MIA PaCa-2 [27] = assay: Antitumor activity against human MIA PaCa-2 cells xenografted in athymic BALB/c-nu mouse assessed as fold change in methionine level in tumor at 2 mg/kg/day, ip administered five times per week for 4 weeks by LC-MS analysis; type: functional
# MIA PaCa-2 [28] = assay: Antitumor activity against human MIA PaCa-2 cells xenografted in athymic BALB/c-nu mouse assessed as fold change in N-acetyl- L-glutamic acid level in tumor at 2 mg/kg/day, ip administered five times per week for 4 weeks by LC-MS analysis; type: functional
smiles,measurement,setting,value
COc1cc(O)c(C(=O)[C@@H]2CC=C(CCC=C(C)C)C[C@H]2c2ccccc2)c(O)c1,fold change (FC),MIA PaCa-2 [1],0.47
same,inhibition,PANC-1 [2],Dose-Dependent Effect
same,inhibition,PANC-1 [3],Dose-Dependent Effect
same,inhibition,MIA PaCa-2 [4],Dose-Dependent Effect
same,inhibition at 10 µM,PANC-1 [5],67%
same,Activity,MIA PaCa-2 [6],119 mg
same,Activity,MIA PaCa-2 [7],Active
same,fold change (FC),MIA PaCa-2 [8],0.31
same,fold change (FC),MIA PaCa-2 [9],0.38
same,fold change (FC),MIA PaCa-2 [10],0.25
same,fold change (FC),MIA PaCa-2 [11],0.29
same,fold change (FC),MIA PaCa-2 [12],0.31
same,Activity,MIA PaCa-2 [13],Active
same,Activity,PANC-1 [14],24%
same,inhibition,PANC-1 [15],inactive
same,fold change (FC),MIA PaCa-2 [16],0.16
same,fold change (FC),MIA PaCa-2 [17],0.4
same,fold change (FC),MIA PaCa-2 [18],0.24
same,fold change (FC),MIA PaCa-2 [19],0.4
same,fold change (FC),MIA PaCa-2 [20],0.63
same,fold change (FC),MIA PaCa-2 [21],0.48
same,fold change (FC),MIA PaCa-2 [22],0.33
same,fold change (FC),MIA PaCa-2 [23],0.43
same,fold change (FC),MIA PaCa-2 [24],0.63
same,fold change (FC),MIA PaCa-2 [25],0.4
same,fold change (FC),MIA PaCa-2 [26],0.33
same,fold change (FC),MIA PaCa-2 [27],0.44
same,fold change (FC),MIA PaCa-2 [28],0.45
